Experimental data: patent US20250312310A1, “Beta2-adrenergic receptor antagonists for use in treating diabetes or obesity” (NovelYeast bv, priority 2021, published 2025)

Molecular target: human β2-AR (Homo sapiens, UniProt P07550)
Experiment: Competitive radioligand binding assay with 125I-cyanopindolol on membrane vesicles
Design: purchased PerkinElmer RBHBE2M
Conditions: maximal increase with increasing concentrations
Protocol: TRIS-HCl buffer containing MgCl2 and EGTA was used as incubation and assay buffer, while TRIS-HCl buffer was used as wash buffer. All buffers were cooled and all further steps performed on ice. Membranes were diluted 150 times in assay buffer. […] The mixtures were incubated for 1 h at ambient temperature, and subsequently filtered using a vacuum pump over GF/C filters (Whatman), pre-soaked in 0.5% polyethyleneimine.

Chain of human β2-AR (P07550 whole entry): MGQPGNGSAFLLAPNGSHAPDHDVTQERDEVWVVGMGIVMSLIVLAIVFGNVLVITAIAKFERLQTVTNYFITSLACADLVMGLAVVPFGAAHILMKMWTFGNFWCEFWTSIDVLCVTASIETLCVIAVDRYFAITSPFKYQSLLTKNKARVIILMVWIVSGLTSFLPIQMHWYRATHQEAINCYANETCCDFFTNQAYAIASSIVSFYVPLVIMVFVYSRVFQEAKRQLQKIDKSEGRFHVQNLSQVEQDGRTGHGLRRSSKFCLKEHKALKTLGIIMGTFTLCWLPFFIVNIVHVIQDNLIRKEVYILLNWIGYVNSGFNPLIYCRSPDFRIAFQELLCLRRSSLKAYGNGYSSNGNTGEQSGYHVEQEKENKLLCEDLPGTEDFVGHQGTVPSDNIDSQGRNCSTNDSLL

## [Cl-].[Na+] [NaCl]
  Increase of 125I-cyanopindolol binding: roughly 35%
